pIC50: −log10 of the molar value.
These compounds were tested against HDM2 protein (Homo sapiens, UniProt Q00987) (assay: fluorescence polarization screening assay (FP IC50)). Conditions: class symbols.
HDM2 protein, sequence (Q00987 whole entry): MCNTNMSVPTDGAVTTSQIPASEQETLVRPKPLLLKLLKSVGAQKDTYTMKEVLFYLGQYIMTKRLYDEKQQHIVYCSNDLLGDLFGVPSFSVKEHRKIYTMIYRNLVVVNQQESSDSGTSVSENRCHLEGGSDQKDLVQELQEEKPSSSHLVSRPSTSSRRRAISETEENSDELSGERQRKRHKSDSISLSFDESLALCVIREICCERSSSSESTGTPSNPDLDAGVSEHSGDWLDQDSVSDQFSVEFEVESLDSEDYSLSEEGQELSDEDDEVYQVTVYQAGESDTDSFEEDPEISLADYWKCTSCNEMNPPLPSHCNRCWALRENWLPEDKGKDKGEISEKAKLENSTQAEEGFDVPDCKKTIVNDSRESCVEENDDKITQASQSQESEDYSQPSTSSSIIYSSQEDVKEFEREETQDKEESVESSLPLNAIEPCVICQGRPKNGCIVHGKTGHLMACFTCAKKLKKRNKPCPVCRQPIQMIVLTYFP
Format: binding
Description: The compounds were evaluated to determine activity at the HDM2 protein by known methods such as the fluorescence polarization screening assay that measures the inhibitory concentration that achieves 50% of maximal activity (FP IC50) and the dissociation constant for inhibitor binding (FP Ki). [Zhang et al., J. Analytical Biochemistry 331: 138-146 (2004)].
`CCC[C@H]1N(C(=O)c2ncccc2C(F)(F)F)CCC[C@@]1(Oc1csc(C(F)(F)F)c1)C(=O)N1Cc2ccc(Cl)cc2C[C@@H]1CCC(=O)N(C)C` [Compound A135, 3-[(3S)-6-chloro-2-{[(2R,3S)-2-propyl-1-{[3-(trifluoromethyl)pyridin-2-yl]carbonyl}-3-{[5-(trifluoromethyl)thiophen-3-yl]oxy}piperidin-3-yl]carbonyl}-1,2,3,4-tetrahydroisoquinolin-3-yl]-N,N-dimethylpropanamide] showed a pIC50 of 7.00 to 9.00. Compound `CCC[C@H]1N(C(=O)c2ncccc2C(F)(F)F)CCC[C@@]1(Oc1csc(C(F)(F)F)c1)C(=O)N1Cc2ccccc2C(C(=O)O)C1` (stereo partly drawn) [Compound A154, 2-{[(2R,3S)-2-propyl-1-{[3-(trifluoromethyl)pyridin-2-yl]carbonyl}-3-{[5-(trifluoromethyl)thiophen-3-yl]oxy}piperidin-3-yl]carbonyl}-1,2,3,4-tetrahydroisoquinoline-4-carboxylic acid] has a pIC50 of 4.70 to 7.00. Compound `CCC[C@H]1N(C(=O)c2ncccc2C(F)(F)F)CCC[C@@]1(Oc1csc(C(F)(F)F)c1)C(=O)N1CCc2cc(F)ccc2C1CCC(=O)NCc1nn[nH]n1` (stereo partly drawn) [Compound A60, 3-(6-fluoro-2-{[(2R,3S)-2-propyl-1-{[3-(trifluoromethyl)pyridin-2-yl]carbonyl}-3-{[5-(trifluoromethyl)thiophen-3-yl]oxy}piperidin-3-yl]carbonyl}-1,2,3,4-tetrahydroisoquinolin-1-yl)-N-(2H-tetrazol-5-ylmethyl)propanamide] has a pIC50 of 7.00 to 9.00. In the case of `CCC[C@H]1N(C(=O)c2ncccc2C(F)(F)F)CCC[C@@]1(Oc1csc(C(F)(F)F)c1)C(=O)N1Cc2ccc(Cl)cc2C[C@@H]1C[C@H](COC)C(=O)O` [Compound A161, (2R)-3-[(3S)-6-chloro-2-{[(2R,3S)-2-propyl-1-{[3-(trifluoromethyl)pyridin-2-yl]carbonyl}-3-{[5-(trifluoromethyl)thiophen-3-yl]oxy}piperidin-3-yl]carbonyl}-1,2,3,4-tetrahydroisoquinolin-3-yl]-2-(methoxymethyl) propanoic acid], the pIC50 was 7.00 to 9.00. `CN1CCN(CC[C@H]2N(C(=O)c3ncccc3C(F)(F)F)CCC[C@@]2(Oc2csc(C(F)(F)F)c2)C(=O)N2CCc3cc(Cl)ccc3C2)CC1` [Compound A115, 6-chloro-2-{[(2R,3S)-2-[2-(4-methylpiperazin-1-yl)ethyl]-1-{[3-(trifluoromethyl)pyridin-2-yl]carbonyl}-3-{[5-(trifluoromethyl)thiophen-3-yl]oxy}piperidin-3-yl]carbonyl}-1,2,3,4-tetrahydroisoquinoline] showed a pIC50 of 7.00 to 9.00. Work on `CCC[C@H]1N(C(=O)c2ncccc2C(F)(F)F)CCC[C@@]1(Oc1csc(C(F)(F)F)c1)C(=O)N1CCc2cc(Cl)ccc2C1C(=O)O` (stereo partly drawn) [Compound A102, 6-chloro-2-{[(2R,3S)-2-propyl-1-{[3-(trifluoromethyl)pyridin-2-yl]carbonyl}-3-{[5-(trifluoromethyl)thiophen-3-yl]oxy}piperidin-3-yl]carbonyl}-1,2,3,4-tetrahydroisoquinoline-1-carboxylic acid] yielded a pIC50 of 7.00 to 9.00. For `CCC[C@H]1N(C(=O)c2ncccc2C(F)(F)F)CCC[C@@]1(Oc1csc(C(F)(F)F)c1)C(=O)N1CCc2ccc(F)cc2C1` [Compound A138, 7-fluoro-2-{[(2R,3S)-2-propyl-1-{[3-(trifluoromethyl)pyridin-2-yl]carbonyl}-3-{[5-(trifluoromethyl)thiophen-3-yl]oxy}piperidin-3-yl]carbonyl}-1,2,3,4-tetrahydroisoquinoline], the pIC50 was 4.70 to 7.00. Compound `CCC[C@H]1N(C(=O)c2ncccc2C(F)(F)F)CCC[C@@]1(Oc1csc(C(F)(F)F)c1)C(=O)N1CCc2cc(F)ccc2C1CCC(=O)NCc1nn[nH]n1` (stereo partly drawn) [Compound A59, 3-(6-fluoro-2-{[(2R,3S)-2-propyl-1-{[3-(trifluoromethyl)pyridin-2-yl]carbonyl}-3-{[5-(trifluoromethyl)thiophen-3-yl]oxy}piperidin-3-yl]carbonyl}-1,2,3,4-tetrahydroisoquinolin-1-yl)-N-(2H-tetrazol-5-ylmethyl)propanamide] has a pIC50 of 7.00 to 9.00. With `CCC[C@H]1N(C(=O)c2ncccc2C(F)(F)F)CCC[C@@]1(Oc1csc(C(F)(F)F)c1)C(=O)N1CCc2cc(Cl)sc2C1C(=O)O` (stereo partly drawn) [Compound A19, 2-chloro-6-{[(2R,3S)-2-propyl-1-{[3-(trifluoromethyl)pyridin-2-yl]carbonyl}-3-{[5-(trifluoromethyl)thiophen-3-yl]oxy}piperidin-3-yl]carbonyl}-4,5,6,7-tetrahydrothieno[2,3-c]pyridine-7-carboxylic acid] the pIC50 was 7.00 to 9.00. With `CCC[C@H]1N(C(=O)c2ncccc2C(F)(F)F)CCC[C@@]1(Oc1csc(C(F)(F)F)c1)C(=O)N1Cc2sccc2CC1C(=O)O` (stereo partly drawn) [Compound A173, 6-{[(2R,3S)-2-propyl-1-{[3-(trifluoromethyl)pyridin-2-yl]carbonyl}-3-{[5-(trifluoromethyl)thiophen-3-yl]oxy}piperidin-3-yl]carbonyl}-4,5,6,7-tetrahydrothieno[2,3-c]pyridine-5-carboxylic acid] the pIC50 was 4.70 to 7.00. Work on `CCC[C@H]1N(C(=O)c2ncccc2C(F)(F)F)CCC[C@@]1(Oc1csc(C(F)(F)F)c1)C(=O)N1CCc2cc(F)ccc2C1CCCO` (stereo partly drawn) [Compound A51, 3-(6-fluoro-2-{[(2R,3S)-2-propyl-1-{[3-(trifluoromethyl)pyridin-2-yl]carbonyl}-3-{[5-(trifluoromethyl)thiophen-3-yl]oxy}piperidin-3-yl]carbonyl}-1,2,3,4-tetrahydroisoquinolin-1-yl)propan-1-ol] yielded a pIC50 of 7.00 to 9.00.
